For 20 molecules, pest or weed control results are on record in patent publication US9096560B2, “5-heterocyclylalkyl-3-hydroxy-2-phenylcyclopent-2-enones as herbicides” (Syngenta Limited, priority 2008, dated 2015).

Format in all cases: in vivo
Assay [1] deals with Lolium perenne (LOLPE). Description: Example B pre-emergence herbicidal test, LOLPE. The following applies: Lolium perenne, 312 h, rate 250 g/ha, evaluated after 13 days, 100=total damage to plant, 0=no damage to plant. On the procedure:
(§1) Seeds of a variety of test species were sown in standard soil in pots. After cultivation for one day (pre-emergence) or after 8 days cultivation (post-emergence) under controlled conditions in a glasshouse (at 24/16° C., day/night; 14 hours light; 65% humidity), the plants were sprayed with an aqueous spray solution derived from the formulation of the technical active ingredient in acetone/water (50:50) solution containing 0.5% Tween 20 (polyoxyethelyene sorbitan monolaurate, CAS RN 9005-64-5). The test plants were then grown in a glasshouse under controlled conditions in a glasshouse (at 24/16° C., day/night; 14 hours light; 65% humidity) and watered twice daily. After 13 days for pre and post-emergence, the test was evaluated (100=total damage to plant; 0=no damage to plant). Lolium perenne (LOLPE), Alopecurus myosuroides (ALOMY), Echinochloa crus-galli (ECHCG), Avena fatua (AVEFA) Pre-Emergence Activity

Assay [2] concerns Alopecurus myosuroides (ALOMY). Description: Example B pre-emergence herbicidal test, ALOMY. To be noted: Alopecurus myosuroides, 312 h, rate 250 g/ha, evaluated after 13 days, 100=total damage to plant, 0=no damage to plant. On the procedure: as §1
Assay [3] concerns Echinochloa crus-galli (ECHCG). Description: Example B pre-emergence herbicidal test, ECHCG. To be noted: Echinochloa crus-galli, 312 h, rate 250 g/ha, evaluated after 13 days, 100=total damage to plant, 0=no damage to plant. On the procedure:
as §1

Assay [4] concerns Avena fatua (AVEFA). Put plainly: Example B pre-emergence herbicidal test, AVEFA. The following applies: Avena fatua, 312 h, rate 250 g/ha, evaluated after 13 days, 100=total damage to plant, 0=no damage to plant. On the procedure:
as §1

Assay [5] relates to Lolium perenne (LOLPE). Description: Example B post-emergence herbicidal test, LOLPE. To be noted: Lolium perenne, 312 h, rate 250 g/ha, evaluated after 13 days, scale 0-100, read-out: Post-emergence activity LOLPE (100=total damage to plant; 0=no damage to plant). On the procedure:
as §1, with “Post-Emergence” for “Pre-Emergence”

In assay [6] the test system is Alopecurus myosuroides (ALOMY). Description: Example B post-emergence herbicidal test, ALOMY. To be noted: Alopecurus myosuroides, 312 h, rate 250 g/ha, evaluated after 13 days, scale 0-100, read-out: Post-emergence activity ALOMY (100=total damage to plant; 0=no damage to plant). On the procedure: as §1, with “Post-Emergence” for “Pre-Emergence”
Assay [7] deals with Echinochloa crus-galli (ECHCG). Put plainly: Example B post-emergence herbicidal test, ECHCG. The following applies: Echinochloa crus-galli, 312 h, rate 250 g/ha, evaluated after 13 days, scale 0-100, read-out: Post-emergence activity ECHCG (100=total damage to plant; 0=no damage to plant). On the procedure:
as §1, with “Post-Emergence” for “Pre-Emergence”

Assay [8] concerns Avena fatua (AVEFA). Put plainly: Example B post-emergence herbicidal test, AVEFA. The following applies: Avena fatua, 312 h, rate 250 g/ha, evaluated after 13 days, scale 0-100, read-out: Post-emergence activity AVEFA (100=total damage to plant; 0=no damage to plant). On the procedure: as §1, with “Post-Emergence” for “Pre-Emergence”

With `C=COC(=O)N1CCC(CC2CC(=O)C(c3c(C)cc(C)cc3C)C2=O)CC1` (stereo not shown) [Compound T102], the pest or weed control at 250 g/ha was determined as 70% in assay [1]; 50% in assay [2]; 50% in assay [3]; 30% in assay [4]; 80% in assay [5]; 90% in assay [6]. Besides, the pest or weed control at 250 g/ha was 40% in assay [7] and 90% in assay [8].

Take `CCSC(=O)OC1=C(c2c(C)cc(C)cc2C)C(=O)C(CC2CCOC2)C1` (stereo not shown) [Compound P30]: the pest or weed control at 250 g/ha was determined as 100% in assay [1]; 100% in assay [2]; 80% in assay [3]; 90% in assay [4]; 100% in assay [5]; 100% in assay [6]. Moreover, the pest or weed control at 250 g/ha in assay [7] came out at 90%; in assay [8], 100%.

Consider `COc1ccc(C(=O)OC2=C(c3c(C)cc(C)cc3C)C(=O)C(CC3CCOC3)C2)cc1` (stereo not shown) [Compound P18], for which the pest or weed control at 250 g/ha in assay [1] amounted to 100%; in assay [2], 100%; in assay [3], 90%; in assay [4], 80%; in assay [5], 100%; in assay [6] it was 90%. Also, the pest or weed control at 250 g/ha in assay [7] and in assay [8] was 90% each time.

Regarding `Cc1cc(C)c(C2C(=O)CC(CC3C[C@@H]4O[C@H]3[C@@H]3C(=O)N(C)C(=O)[C@@H]34)C2=O)c(C)c1` (stereo partly shown) [Compound T128], the pest or weed control at 250 g/ha in assay [1] turned out to be 50%; in assay [2], 70%; in assay [3], 60%; in assay [4] it was 40%; in assay [5] it was 50%; in assay [6] it was 40%. For the same molecule, the values for the pest or weed control at 250 g/ha in assay [7] and in assay [8] were 50% and 90%, respectively.

Consider `COCCOC(=O)N1CCC(CC2CC(=O)C(c3c(C)cc(C)cc3C)C2=O)CC1` (stereo not shown) [Compound T123], for which the pest or weed control at 250 g/ha in assay [1] is 60%; in assay [2] it was 60%; in assay [3], 60%; in assay [4], 60%; in assay [5], 70%; in assay [6] it was 80%. Also, the values for the pest or weed control at 250 g/ha in assay [7] and in assay [8] were 60% and 90%, respectively.

On to `Cc1cc(C)c(C2C(=O)C/C(=C\C3CC[S+]([O-])CC3)C2=O)c(C)c1` (stereo not shown) [Compound T11], for which the pest or weed control at 250 g/ha in assay [1] stood at 70%; in assay [2] it was 30%; in assay [3], 20%; in assay [4], 0%; in assay [5], 50%; in assay [6], 60%. Also, the pest or weed control at 250 g/ha stood at 70% in assay [7] and 30% in assay [8].

Regarding `Cc1cccc(C(=O)N2CCC(CC3CC(=O)C(c4c(C)cc(C)cc4C)C3=O)CC2)c1` (stereo not shown) [Compound T122], the pest or weed control at 250 g/ha in assay [1] worked out at 50%; in assay [2] it was 20%; in assay [3], 70%; in assay [4] it was 20%; in assay [5] it was 80%; in assay [6], 60%. The pest or weed control at 250 g/ha in assay [7] stood at 70%; in assay [8], 30%.

As to `Cc1cc(C)c(C2C(=O)CC(CC3CCN(C(=O)c4cc(C)on4)CC3)C2=O)c(C)c1` (stereo not shown) [Compound T119], the pest or weed control at 250 g/ha was 80% in assay [1]; 40% in assay [2]; 100% in assay [3]; 30% in assay [4]; 90% in assay [5]; 90% in assay [6]. Also, the pest or weed control at 250 g/ha turned out to be 90% in assay [7] and 80% in assay [8].

Regarding `Cc1cc(C)c(C2C(=O)CC(C(O)C3CCSCC3)C2=O)c(C)c1` (stereo not shown) [Compound T6], the pest or weed control at 250 g/ha in assay [5] worked out at 10%; in assay [6] it was 20%; in assay [7], 10%; in assay [8] it was 0%.

Regarding `COCC1(CC2CCOC2)CC(=O)C(c2c(C)cc(C)cc2C)C1=O` (stereo not shown) [Compound T153], the pest or weed control at 250 g/ha in assay [5] came out at 20%; in assay [6], 10%; in assay [7] it was 10%; in assay [8], 20%.

For `CCC1(CC2CCOC2)CC(=O)C(c2c(C)cc(C)cc2C)C1=O` (stereo not shown) [Compound T152], the pest or weed control at 250 g/ha in assay [5] was 30%; in assay [6], 20%; in assay [7], 10%; in assay [8], 10%.

As to `COC1=C(c2c(C)cc(C)cc2C)C(=O)C(CC2CCOCC2)C1` (stereo not shown) [Compound P4], the pest or weed control at 250 g/ha stood at 30% in assay [5], 60% in assay [6], 20% in assay [7] and 40% in assay [8].

As for `Cc1cc(C)c(C2C(=O)CC(CC3CCN(C(=O)/C=C/c4ccccc4)CC3)C2=O)c(C)c1` (stereo not shown) [Compound T116], the pest or weed control at 250 g/ha was determined as 90% in assay [5], 60% in assay [6], 50% in assay [7] and 90% in assay [8].

For `Cc1cc(C)c(C2C(=O)CC(CC3CCNCC3)C2=O)c(C)c1` (stereo not shown) [Compound T53], the pest or weed control at 250 g/ha in assay [1] was 40%; in assay [2], 30%; in assay [3], 0%; in assay [4], 0%.

On to `Cc1cc(C)c(C2=C(OC(=O)c3ccco3)CC(CC3CCN(C(=O)c4ccco4)C3)C2=O)c(C)c1` (stereo not shown) [Compound P62], for which the pest or weed control at 250 g/ha in assay [5] is 80%; in assay [6], 70%; in assay [7], 70%; in assay [8], 70%.

With `Cc1cc(C)c(C2C(=O)CC(CC3C[C@@H]4O[C@H]3[C@@H]3C(=O)NC(=O)[C@@H]34)C2=O)c(C)c1` (relative stereo) [Compound T127], the pest or weed control at 250 g/ha turned out to be 20% in assay [5], 20% in assay [6], 20% in assay [7] and 10% in assay [8].

In the case of `Cc1cc(-c2ccc(C(F)(F)F)cc2)cc(C)c1C1C(=O)C/C(=C\C2CCOCC2)C1=O` (stereo not shown) [Compound T133], the pest or weed control at 250 g/ha in assay [5] is 0%; in assay [6], 20%; in assay [7], 90%; in assay [8], 30%.

`Cc1ccc(S(=O)(=O)N2CCC(CC3CC(=O)C(c4c(C)cc(C)cc4C)C3=O)CC2)cc1` (stereo not shown) [Compound T109]: the pest or weed control at 250 g/ha in assay [1], in assay [2], in assay [3] and in assay [4] was 0% in each case.

For `COC1=C(c2c(C)cc(C)cc2C)C(=O)C/C1=C\C1CCOCC1` [Compound P69], the pest or weed control at 250 g/ha in assay [5] stood at 40%; in assay [6], 0%; in assay [7], 80%; in assay [8], 20%.

On to `Cc1cc(-c2ccc(C(F)(F)F)cc2)cc(C)c1C1C(=O)CC(CC2CCOCC2)C1=O` (stereo not shown) [Compound T136], for which the pest or weed control at 250 g/ha is 30% in assay [5], 50% in assay [6], 60% in assay [7] and 70% in assay [8].
